Results on four molecules are retold here after article PMC11831382, “Use of Aldehyde–Alkyne–Amine Couplings to Generate Medicinal Chemistry-Relevant Linkers” (ACS Medicinal Chemistry Letters, 2025).

The subject of one data set is BRD4 long and short. Description: Western blot of BRD4 degradation. Type of data set: cell-based. Here is the method: Figure 2 Representative Western blot of 7a degradation of BRD4 performed in HEK293 cell line after 18 h treatment. The experiment was done as n = 3 independent biological replicates.
The best analogue, 7a, was next shown, by Western blot, to degrade both BRD4 long and short in the 300–1000 nM range, reversed by the addition of either proteasome or neddylation inhibitors or by thalidomide.
Cell culture. HEK293 CRISPR HIBIT BRD4 cells were generated at CeTPD using CRISPR -CAS technology. Parental HEK293 and HEK293 CRISPR HIBIT BRD4 cell lines were cultured in DMEM media (Gibco), supplemented with 10% fetal bovine serum (FBS), and were kept at 37 °C, 5% CO2 in a humidiﬁed incubator.
BRD4 Degradation A ssays used a HiBiT Lytic assay. […]
(§1) Following incubation, 100 μL per well Promega Nano -Glo HiBiT lytic detection reagent mix (Promega Nano -Glo HiBiT Lytic Detection System #N3050), prepared according to the manufacturer´s instructions in the kit, were added. […] Luminescence was measured using plate reader (BMG L abtech PHERA star).
(§2) Luminescence levels in the treatment wells were normalised to DMSO-treated samples and plotted as percentage of DMSO control in GraphPad Prism (10.2.3).Western blot 5x10^5 HEK293 CRISPR HIBIT BRD4 cells were seeded into 6-well plates 24 hours before treatment. […]
(§3) Fluorescence Polarization (FP). […]

Data set [1] has as its target P-gp (Homo sapiens, UniProt P08183). Description: P-gp substrate classification from efflux ratio. Type of data set: in vitro ADME. An excerpt:
(§4) Figure S3 . PK data for 7a and 7c.
(§5) (2 pictures or pasted objects on this page, not shown here)

The subject of data set [2] is P-gp. Description: Bidirectional permeability (Papp A-B, B-A). The conditions noted are these: not told. Format: in vitro ADME.
Source text: as §4, §5

Data set [3] is described as follows: Bidirectional permeability (Papp A-B, B-A). Format: in vitro ADME. The conditions noted are these: for A-B Permeability: class in words; for Papp A→B / Papp B→A: not told; for Papp A→B: A-B direction; for Papp B→A: B-A direction.
Source text: as §4, §5

For another data set, the target named is T1, BRD4 (Homo sapiens, UniProt O60885).
T1 construct: endogenous in cells; host or cells: HEK293 CRISPR HiBiT BRD4 (knock-in)
The data set is described as follows: BRD4 degradation assay, Promega Nano-Glo HiBiT lytic assay. Format: cell-based. The conditions noted are these: HEK293 CRISPR HiBiT BRD4 cell line.

Data set [4] in a line: Microsomal stability (HLM). Format: in vitro ADME. The conditions noted are these: human, human liver microsomes. An excerpt: (§6) Moreover, the solubility of both final compounds was low (5% PBS buffer, saline). These examples were merely chosen to showcase the synthetic potential of the chemistry rather than a medicinal chemistry-focused PROTAC optimization approach for which scope remains to optimize PK properties in future heterofunctional molecules. For example, the alkyne functionality, present in the A^3 products 2a and 2c, although present in a number of marketed, bioactive molecules,[37] even PROTACs,[38] acting as a rigid hydrophobic spacer, can be reduced by catalytic hydrogenation[39] to afford a saturated, more flexible yet possibly less metabolically labile linker.

A further data set is described as follows: Solubility. Format: physicochemical. The conditions noted are these: for solubility: 5% PBS buffer, saline; for solubility (qualitative remark): visual or general observation.
Source text: as §6

Data set [5] deals with CRBN-DDB1 (cereblon DNA damage-binding protein 1 complex) (Homo sapiens, UniProt Q96SW2). The data set is described as follows: Fluorescence polarization (FP) CRBN-binding assay, direct titration. The conditions noted are these: 1 nM 4c titrated with CRBN-DDB1, triplicates, read-out: dissociation constant (Kd).
Source text: Medicinal chemistry scope was expanded by the synthesis of a few representative linkers, which were elaborated to modalities adorned with a cellular marker, an E3 ligase motif, and a free alcohol function. […] Initially, treatment with Pd(dba)2, dppb, and thiosalicylic acid removed the allyl protecting group to give 2m in 39% yield. The resulting secondary amine was coupled to a bodipy-containing carboxylic acid 3([25]) to afford the Boc-protected linker 4a (82% yield, Scheme 3). Simple Boc removal with acid exposed the secondary amine 4b intermediate, which was coupled to an acid comprising E3 ligand affording 4c. Such modalities have a free “handle” that could be added to a POI-binding ligand of choice, e.g., by substitution chemistry, esterification, or ether formation. […]
as §1, §2, §3

SMILES strings stand for the structures. Entries after “also recorded” stand apart in the source; their conditions may differ.

Sequence of CRBN-DDB1 (cereblon DNA damage-binding protein 1 complex) (Q96SW2 whole entry): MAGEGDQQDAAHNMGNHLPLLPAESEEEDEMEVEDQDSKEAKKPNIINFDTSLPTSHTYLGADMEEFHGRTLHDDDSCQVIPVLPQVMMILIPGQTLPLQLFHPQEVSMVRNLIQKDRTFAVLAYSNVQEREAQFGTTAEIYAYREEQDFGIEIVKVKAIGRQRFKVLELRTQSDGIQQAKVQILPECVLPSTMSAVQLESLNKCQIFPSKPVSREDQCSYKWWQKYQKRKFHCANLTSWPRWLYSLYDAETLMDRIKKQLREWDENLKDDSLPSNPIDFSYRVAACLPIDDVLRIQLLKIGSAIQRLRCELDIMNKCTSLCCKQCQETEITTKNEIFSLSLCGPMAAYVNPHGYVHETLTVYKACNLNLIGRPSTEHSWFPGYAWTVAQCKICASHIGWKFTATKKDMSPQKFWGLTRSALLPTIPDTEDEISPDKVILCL
Sequence of CRBN-DDB1 (cereblon DNA damage-binding protein 1 complex) (Q16531 whole entry partner): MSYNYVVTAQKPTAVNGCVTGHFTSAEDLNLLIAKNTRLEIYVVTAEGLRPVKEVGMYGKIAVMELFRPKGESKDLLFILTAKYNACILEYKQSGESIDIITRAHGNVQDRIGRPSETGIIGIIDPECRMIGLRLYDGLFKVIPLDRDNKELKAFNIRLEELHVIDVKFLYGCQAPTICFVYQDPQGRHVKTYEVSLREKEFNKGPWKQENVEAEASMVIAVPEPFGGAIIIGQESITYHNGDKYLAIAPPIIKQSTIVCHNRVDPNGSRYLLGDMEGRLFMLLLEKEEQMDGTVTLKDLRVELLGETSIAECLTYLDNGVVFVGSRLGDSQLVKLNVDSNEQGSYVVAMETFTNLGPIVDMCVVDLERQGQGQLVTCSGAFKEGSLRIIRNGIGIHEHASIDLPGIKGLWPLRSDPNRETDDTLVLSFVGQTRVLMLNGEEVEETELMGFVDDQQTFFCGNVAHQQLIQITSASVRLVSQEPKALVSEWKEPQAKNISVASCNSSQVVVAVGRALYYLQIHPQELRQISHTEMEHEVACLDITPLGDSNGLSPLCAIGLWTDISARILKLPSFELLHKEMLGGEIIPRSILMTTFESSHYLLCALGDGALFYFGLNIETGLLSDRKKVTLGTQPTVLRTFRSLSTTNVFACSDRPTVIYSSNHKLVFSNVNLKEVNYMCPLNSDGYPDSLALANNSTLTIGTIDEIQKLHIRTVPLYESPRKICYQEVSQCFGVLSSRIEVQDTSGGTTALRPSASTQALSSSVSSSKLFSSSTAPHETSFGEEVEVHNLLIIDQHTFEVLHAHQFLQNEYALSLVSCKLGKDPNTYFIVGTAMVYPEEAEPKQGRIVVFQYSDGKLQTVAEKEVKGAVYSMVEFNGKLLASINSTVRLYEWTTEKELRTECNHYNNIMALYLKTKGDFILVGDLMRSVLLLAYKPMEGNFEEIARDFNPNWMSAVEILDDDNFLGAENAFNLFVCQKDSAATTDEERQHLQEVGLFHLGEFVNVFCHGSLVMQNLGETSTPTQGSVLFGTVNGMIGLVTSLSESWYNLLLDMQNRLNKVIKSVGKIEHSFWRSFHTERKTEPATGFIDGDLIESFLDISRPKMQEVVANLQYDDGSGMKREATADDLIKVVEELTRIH
Sequence of P-gp (Homo sapiens, UniProt P08183) (P08183 whole entry): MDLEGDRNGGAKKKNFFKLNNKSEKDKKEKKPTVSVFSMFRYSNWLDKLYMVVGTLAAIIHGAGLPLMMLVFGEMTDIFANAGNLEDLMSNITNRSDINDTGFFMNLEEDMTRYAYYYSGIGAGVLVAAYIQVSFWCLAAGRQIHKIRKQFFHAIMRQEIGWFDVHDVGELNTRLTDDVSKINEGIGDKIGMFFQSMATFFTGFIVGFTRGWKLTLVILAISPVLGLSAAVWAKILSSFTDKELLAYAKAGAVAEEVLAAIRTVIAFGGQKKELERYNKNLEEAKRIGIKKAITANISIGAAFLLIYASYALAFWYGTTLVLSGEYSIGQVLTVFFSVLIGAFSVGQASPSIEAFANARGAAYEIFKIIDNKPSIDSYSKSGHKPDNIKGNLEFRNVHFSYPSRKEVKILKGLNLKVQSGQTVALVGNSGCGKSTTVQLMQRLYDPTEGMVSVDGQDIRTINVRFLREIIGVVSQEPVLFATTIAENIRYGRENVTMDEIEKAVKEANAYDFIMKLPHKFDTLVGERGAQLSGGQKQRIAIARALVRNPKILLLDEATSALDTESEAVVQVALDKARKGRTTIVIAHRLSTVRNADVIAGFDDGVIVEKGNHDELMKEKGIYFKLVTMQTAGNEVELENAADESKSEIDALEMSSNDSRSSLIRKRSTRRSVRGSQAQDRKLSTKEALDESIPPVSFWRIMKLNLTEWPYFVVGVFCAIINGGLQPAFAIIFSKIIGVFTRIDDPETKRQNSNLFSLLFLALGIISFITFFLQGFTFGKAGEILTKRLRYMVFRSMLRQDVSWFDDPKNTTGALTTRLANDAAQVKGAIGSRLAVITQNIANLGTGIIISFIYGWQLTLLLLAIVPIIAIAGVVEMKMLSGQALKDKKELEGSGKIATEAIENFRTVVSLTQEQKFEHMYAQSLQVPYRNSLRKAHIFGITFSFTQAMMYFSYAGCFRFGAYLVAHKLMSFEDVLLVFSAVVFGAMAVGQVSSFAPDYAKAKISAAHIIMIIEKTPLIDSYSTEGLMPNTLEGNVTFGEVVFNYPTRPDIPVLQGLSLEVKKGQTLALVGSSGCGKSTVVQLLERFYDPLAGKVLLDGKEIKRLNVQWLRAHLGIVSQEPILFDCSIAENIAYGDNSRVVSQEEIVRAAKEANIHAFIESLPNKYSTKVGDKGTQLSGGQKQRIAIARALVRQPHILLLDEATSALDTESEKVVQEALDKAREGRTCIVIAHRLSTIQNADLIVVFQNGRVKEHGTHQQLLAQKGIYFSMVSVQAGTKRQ

For the molecule `Cc1sc2c(c1C)C(c1ccc(Cl)cc1)=N[C@@H](CC(=O)NCCNC(=O)c1ccc(SCCC#CC(C3CCOCC3)N3CCC(NC(=O)COc4cccc5c4C(=O)N(C4CCC(=O)NC4=O)C5=O)CC3)cc1)c1nnc(C)n1-2` (stereo partly shown) [Compound 7a], in the data set on BRD4 long and short (10 µM 7a with 10 µM MG132, MLN4924 or thalidomide, 18 h), the “degradation on addition of proteasome or neddylation inhibitors or thalidomide” value is recorded as “reversed”. In addition, the “concentration range degrading BRD4 long and short” value with BRD4 long and short (HEK293 cell line, 18 h treatment) is 300 to 1000 nM. For the same molecule, at P-gp [1], the “P-gp Substrate” value was “Not-Substrate”. In addition, in the data set on P-gp [2], the efflux ratio worked out at 1.4. Further, in data set [3], the “A-B Permeability” value is “low permeability and Low”; the Papp A→B came out at 0.007 ×10⁻⁶ cm/s; the Papp B→A was 0.01 ×10⁻⁶ cm/s. Moreover, on BRD4 (18 h after dosage), the DC50 is 89.4 nM. Moreover, in data set [4], the half-life at 1 h came to 6.64 min and the microsomal CLint was 209 µL/min/mg. For the same molecule, the solubility entry in “Solubility” is on record as “low solubility”.

For `Cc1sc2c(c1C)C(c1ccc(Cl)cc1)=N[C@@H](CC(=O)NCC#CC(C1CCN(C(=O)COc3cccc4c3C(=O)N(C3CCC(=O)NC3=O)C4=O)CC1)N1CCN(C(=O)COc3cccc4c3C(=O)N(C3CCC(=O)NC3=O)C4=O)CC1)c1nnc(C)n1-2` (stereo partly shown) [Compound 7c], in data set [3], the “A-B Permeability” value is “low permeability and Low”; the Papp A→B is under 0.1 ×10⁻⁶ cm/s; the Papp B→A is under 0.1 ×10⁻⁶ cm/s. Further, the DC50 at BRD4 (18 h) was over 1000 nM. Besides, in data set [4], the half-life at 1 h amounted to 17.5 min and the microsomal CLint stood at 79.1 µL/min/mg. Also, in “Solubility”, the solubility entry is “low solubility” and the “solubility (qualitative remark)” value was “poor solubility”.

As for `Cc1ncsc1-c1ccc(CNC(=O)[C@@H]2C[C@@H](O)CN2C(=O)[C@@H](NC(=O)CCCCC(=O)NC2CCN(C(C#CCCSc3ccc(C(=O)NCCNC(=O)C[C@@H]4N=C(c5ccc(Cl)cc5)c5c(sc(C)c5C)-n5c(C)nnc54)cc3)C3CCOCC3)CC2)C(C)(C)C)cc1` (stereo partly shown) [Compound 7b], on BRD4 (18 h), the half-maximal degradation concentration (DC50) was over 1000 nM. In the data set “Solubility”, the “solubility (qualitative remark)” value is “poor solubility; also recorded: visibly poorly soluble”.

As to `CC1=CC(C)=[N+]2C1=C(CCC(=O)N1CCN(C(C#CCCO)C3CCC(NC(=O)CCOCCOCCNC(=O)c4ccc5c(c4)C(=O)N(C4CCC(=O)NC4=O)C5=O)CC3)CC1)c1c(C)cc(C)n1[B-]2(F)F` (stereo not shown) [Compound 4c], the Kd in data set [5] was 166 ± 3.5 nM.
